Measurements as given in ChEMBL document CHEMBL1201862, “PubChem BioAssay data set” (2004).
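In this assay, cells in 96-well plates receive the compound at five concentrations for 48 hours. Endpoints are linearly interpolated between the surrounding concentrations. Here, GI50 denotes the concentration required for 50% inhibition of growth.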 Activity calls are given as the source filed them. Cut-off read from the data, not from the text of the source: active = GI50 up to about 1.1 µM and inactive = higher.

Columns and labels:
Test in all cases: DTP human tumour cell line panel, 48 h
786-0 = test system: 786-0
A498 = test system: A498
A549 = test system: A549
ACHN = test system: ACHN
BT-549 = test system: BT-549
CAKI-1 = test system: CAKI-1
CCRF-CEM = test system: CCRF-CEM
COLO 205 = test system: COLO 205
DU-145 = test system: DU-145
EKVX = test system: EKVX
HCC 2998 = test system: HCC 2998
HCT-116 = test system: HCT-116
HCT-15 = test system: HCT-15
HL-60 = test system: HL-60
HOP-62 = test system: HOP-62
HOP-92 = test system: HOP-92
HT-29 = test system: HT-29
Hs-578T = test system: Hs-578T
IGROV-1 = test system: IGROV-1
K562 = test system: K562
KM12 = test system: KM12
LOX IMVI = test system: LOX IMVI
M14 = test system: M14
MCF7 = test system: MCF7
MDA-MB-231 = test system: MDA-MB-231
MDA-MB-435 = test system: MDA-MB-435
MDA-N = test system: MDA-N
MOLT-4 = test system: MOLT-4
NCI-H226 = test system: NCI-H226
NCI-H23 = test system: NCI-H23
NCI-H460 = test system: NCI-H460
NCI-H522 = test system: NCI-H522
NCI/ADR-RES = test system: NCI/ADR-RES
OVCAR-3 = test system: OVCAR-3
OVCAR-4 = test system: OVCAR-4
OVCAR-5 = test system: OVCAR-5
OVCAR-8 = test system: OVCAR-8
PC-3 = test system: PC-3
RPMI-8226 = test system: RPMI-8226
RXF 393 = test system: RXF 393
SF-268 = test system: SF-268
SF-295 = test system: SF-295
SF-539 = test system: SF-539
SK-MEL-28 = test system: SK-MEL-28
SK-MEL-2 = test system: SK-MEL-2
SK-MEL-5 = test system: SK-MEL-5
SK-OV-3 = test system: SK-OV-3
SN12C = test system: SN12C
SNB-19 = test system: SNB-19
SNB-75 = test system: SNB-75
SR = test system: SR
SW-620 = test system: SW-620
T47D = test system: T47D
TK-10 = test system: TK-10
U-251 = test system: U-251
UACC-257 = test system: UACC-257
UACC-62 = test system: UACC-62
UO-31 = test system: UO-31

CCc1nc(N)nc(N)c1-c1ccc([N+](=O)[O-])c(NCc2ccccc2)c1
GI50 (786-0): 13.9 µM (inactive)
GI50 (A498): 15.5 µM (inactive)
GI50 (A549): 6.17 µM (inactive)
GI50 (ACHN): 15.3 µM (inactive)
GI50 (BT-549): 16.9 µM (inactive)
GI50 (CAKI-1): 13.7 µM (inactive)
GI50 (CCRF-CEM): 8.85 µM (inactive)
GI50 (COLO 205): 14.7 µM (inactive)
GI50 (DU-145): 14.9 µM (inactive)
GI50 (EKVX): 11.2 µM (inactive)
GI50 (HCC 2998): 15.2 µM (inactive)
GI50 (HCT-116): 7.36 µM (inactive)
GI50 (HCT-15): 12.3 µM
GI50 (HL-60): 5.82 µM (inactive)
GI50 (HOP-62): 12.4 µM (inactive)
GI50 (HOP-92): 10.6 µM (inactive)
GI50 (HT-29): 7.91 µM (inactive)
GI50 (Hs-578T): 13.8 µM (inactive)
GI50 (IGROV-1): 10.9 µM (inactive)
GI50 (K562): 5.2 µM (inactive)
GI50 (KM12): 17.3 µM (inactive)
GI50 (LOX IMVI): 14.5 µM (inactive)
GI50 (M14): 12.4 µM (inactive)
GI50 (MCF7): 13.6 µM (inactive)
GI50 (MDA-MB-231): 14.8 µM (inactive)
GI50 (MDA-MB-435): 14.6 µM (inactive)
GI50 (MDA-N): 16 µM (inactive)
GI50 (MOLT-4): 7.5 µM (inactive)
GI50 (NCI-H226): 18.7 µM (inactive)
GI50 (NCI-H23): 14.5 µM (inactive)
GI50 (NCI-H460): 6.17 µM (inactive)
GI50 (NCI-H522): 15.9 µM (inactive)
GI50 (NCI/ADR-RES): 10.7 µM (inactive)
GI50 (OVCAR-3): 13.2 µM (inactive)
GI50 (OVCAR-4): 15.2 µM (inactive)
GI50 (OVCAR-5): 22.4 µM (inactive)
GI50 (OVCAR-8): 16.5 µM (inactive)
GI50 (PC-3): 12.8 µM (inactive)
GI50 (RPMI-8226): 11.6 µM (inactive)
GI50 (RXF 393): 14.4 µM (inactive)
GI50 (SF-268): 14.9 µM (inactive)
GI50 (SF-295): 10.4 µM (inactive)
GI50 (SF-539): 16.3 µM (inactive)
GI50 (SK-MEL-28): 16.4 µM (inactive)
GI50 (SK-MEL-2): 21.6 µM (inactive)
GI50 (SK-MEL-5): 6.05 µM (inactive)
GI50 (SK-OV-3): 20.4 µM (inactive)
GI50 (SN12C): 20 µM (inactive)
GI50 (SNB-19): 16.4 µM (inactive)
GI50 (SNB-75): 10.1 µM (inactive)
GI50 (SR): 10.3 µM (inactive)
GI50 (SW-620): 12.6 µM (inactive)
GI50 (T47D): 6.47 µM (inactive)
GI50 (TK-10): 20.2 µM (inactive)
GI50 (U-251): 12.8 µM (inactive)
GI50 (UACC-257): 12.8 µM (inactive)
GI50 (UACC-62): 15.7 µM (inactive)
GI50 (UO-31): 6.18 µM (inactive)

CN(O)C(=O)Cc1ccc(OCc2cccc(Cl)c2)cc1
GI50 (786-0): > 100 µM (inactive)
GI50 (A498): 1.23 µM (inactive)
GI50 (A549): > 100 µM (inactive)
GI50 (ACHN): > 100 µM (inactive)
GI50 (BT-549): > 100 µM (inactive)
GI50 (CAKI-1): > 100 µM (inactive)
GI50 (CCRF-CEM): > 100 µM (inactive)
GI50 (COLO 205): > 100 µM (inactive)
GI50 (DU-145): > 100 µM (inactive)
GI50 (EKVX): > 100 µM (inactive)
GI50 (HCC 2998): > 100 µM (inactive)
GI50 (HCT-116): > 100 µM (inactive)
GI50 (HCT-15): > 100 µM
GI50 (HL-60): > 100 µM (inactive)
GI50 (HOP-62): > 100 µM (inactive)
GI50 (HOP-92): > 100 µM (inactive)
GI50 (HT-29): > 100 µM (inactive)
GI50 (Hs-578T): > 100 µM (inactive)
GI50 (IGROV-1): > 100 µM (inactive)
GI50 (K562): > 100 µM (inactive)
GI50 (KM12): > 100 µM (inactive)
GI50 (LOX IMVI): > 100 µM (inactive)
GI50 (M14): > 100 µM (inactive)
GI50 (MCF7): > 100 µM (inactive)
GI50 (MDA-MB-231): > 100 µM (inactive)
GI50 (MDA-MB-435): > 100 µM (inactive)
GI50 (MDA-N): > 100 µM (inactive)
GI50 (MOLT-4): > 100 µM (inactive)
GI50 (NCI-H226): > 100 µM (inactive)
GI50 (NCI-H23): > 100 µM (inactive)
GI50 (NCI-H460): > 100 µM (inactive)
GI50 (NCI-H522): > 100 µM (inactive)
GI50 (NCI/ADR-RES): > 100 µM (inactive)
GI50 (OVCAR-3): > 100 µM (inactive)
GI50 (OVCAR-4): > 100 µM (inactive)
GI50 (OVCAR-5): > 100 µM (inactive)
GI50 (OVCAR-8): > 100 µM (inactive)
GI50 (PC-3): > 100 µM (inactive)
GI50 (RPMI-8226): > 100 µM (inactive)
GI50 (RXF 393): > 100 µM (inactive)
GI50 (SF-268): > 100 µM (inactive)
GI50 (SF-295): > 100 µM (inactive)
GI50 (SF-539): > 100 µM (inactive)
GI50 (SK-MEL-28): > 100 µM (inactive)
GI50 (SK-MEL-2): > 100 µM (inactive)
GI50 (SK-MEL-5): > 100 µM (inactive)
GI50 (SK-OV-3): > 100 µM (inactive)
GI50 (SN12C): > 100 µM (inactive)
GI50 (SNB-19): > 100 µM (inactive)
GI50 (SNB-75): > 100 µM (inactive)
GI50 (SR): > 100 µM (inactive)
GI50 (SW-620): > 100 µM (inactive)
GI50 (T47D): 40.4 µM (inactive)
GI50 (TK-10): > 100 µM (inactive)
GI50 (U-251): > 100 µM (inactive)
GI50 (UACC-257): > 100 µM (inactive)
GI50 (UACC-62): > 100 µM (inactive)
GI50 (UO-31): > 100 µM (inactive)
